{
  "source": "patent EP4796176A2",
  "about": "“METHOD OF ALLEVIATING JOINT PAIN” (OrthoTrophix, Inc., priority 2017, dated 2026)",
  "system": "subjects with bilateral patello-femoral knee osteoarthritis",
  "assay": "Randomized double-blind placebo-controlled clinical study, safety and tolerability",
  "type": "in vivo, human",
  "procedure": "A multicenter, randomized double-blind, placebo controlled study was designed to investigate the safety, tolerability, pharmacokinetics, and efficacy of TPX-100 administered in four weekly doses in subjects with bilateral patello-femoral knee osteoarthritis. The study was conducted under an open IND (investigational new drug application) at CDER (Center for Drug Evaluation and Research) of the U.S. FDA (The United States Food and Drug Administration) in compliance with GCP (Good Clinical Practice) and ICH (International Conference on Harmonization of Technical Requirements for Registration of Pharmaceuticals for Human Use) guidelines. Eighteen (18) orthopedic, rheumatologic and family practice centers in the U.S. participated in the study.\nThe study was divided into Part A and Part B. The Part A was to evaluate safety of intra-articular (I.A.) administration of TPX-100 at different dosing levels (20, 50, 100, or 200mg per injection in sequential cohorts) in the subjects with osteoarthritis of the knees and to select a dose adopted for the Part B. The Part B was to evaluate safety and efficacy of the selected dose of TPX-100.\nSubjects in Part A enrolled in sequential cohorts were randomized to receive 20, 50, 100 or 200 mg of TPX-100 in one knee and identical placebo in the contralateral knee. Active and placebo assignments were randomized, with subject, site, and sponsor blinded as to treatment assignment. A Safety Review Committee (SRC) evaluated safety in each dosing cohort. The SRC assessed safety and dose-limiting toxicities, if evident, and determined whether the next higher dosing regimen might be enrolled. Part A were completed and analyzed with regard to safety prior to dose selection and initiation of Part B. […]\nThe 200mg dose was selected for Part B based on review and approval by the SRC. […] The combined final number of the subjects that were analyzed for the drug efficacy for 200mg dose of TPX-100 was 93.\nOn the first dosing day, the randomized subjects were assessed for their general health conditions by physical examinations and vital signs. […] Subjects were monitored for adverse events during the injections and for a few hours after the injections. Vital signs were also monitored after the injections.\nSubjects returned to their respective study sites at 3, 6 and 12 months after the first dosing day for follow-up evaluations. In addition, the study sites monitored the subject's condition through telephone contact 9 months after the first dosing day. During the 3, 6, and 12 months post-treatment follow-up on-site visits, subjects were evaluated by physical examination, vital signs, serum chemistry, as well as KOOS. Adverse events and concomitant medications were also recorded. […]",
  "note": "Where no end group is shown, it is not given here.",
  "data": [
    {"substance": "TDLQERGDNDISPFSGDGQPFKD-NH2 [TPX-100]", "values": [
      {"measurement": "dose-limiting toxicities", "setting": "Part A, 20, 50, 100 and 200 mg per injection, four weekly intra-articular injections", "value": "no dose-limiting toxicities"},
      {"measurement": "severe adverse events", "setting": "throughout the study period", "value": "no severe adverse events likely or possibly related to the drug treatment"},
      {"measurement": "treatment-related adverse events", "setting": "throughout the study period", "value": "mild or moderate, transient"},
      {"measurement": "safety and tolerability", "setting": "throughout the study period (12 months)", "value": "safe and well tolerated"}
    ]}
  ]
}
